According to ChEMBL document CHEMBL6096733, “Structure-Based Virtual Screening Identifies 2-Arylthiazole-4-Carboxylic Acids as a Novel Class of Nanomolar Affinity Ligands for the CaMKIIα Hub Domain” (J Med Chem, 2025):

Assays:
[1] = molecular target: T1, Calcium/calmodulin-dependent protein kinase type II subunit alpha (Rattus norvegicus, UniProt P11275); experiment: Inhibition of […] binding to CaMKIIalpha in rat brain cortical membrane assessed as inhibition constant incubated for 1 hrs by TopCount NXT microplate scintillation counter analysis; type: cell membranes, Cortex
[2] = molecular target: T1, Calcium/calmodulin-dependent protein kinase type II subunit alpha; experiment: Inhibition of [3H]NCS-382 binding to CaMKIIalpha in rat brain cortical membrane assessed as inhibition constant incubated for 1 hrs by TopCount NXT microplate scintillation counter analysis; type: cell membranes, Cortex; settings: read-out: Ki
physchem = settings: potassium phosphate buffer, pH 7.4
Description: Stability of compound in potassium phosphate buffer at pH 7.4 assessed as half-life

[3] = molecular target: T2, Calcium/calmodulin-dependent protein kinase type II subunit alpha (Homo sapiens, UniProt Q9UQM7); experiment: Induction of thermal stabilization of recombinant wildtype human CAMKIIalpha hub domain (345 to 475 residues) extracted from Escherichia coli BL21 (DE3) cells by differential scanning fluorimetric analysis; settings: dose 0.625-320 µM
[4] = molecular target: T2, Calcium/calmodulin-dependent protein kinase type II subunit alpha; experiment: Induction of thermal stabilization of recombinant wildtype human CAMKIIalpha hub domain (345 to 475 residues) extracted from Escherichia coli BL21 (DE3) cells assessed as change in melting temperature at 0.625 to 320 microM by differential scanning fluorimetric analysis; settings: dose 0.625-320 µM

T1 sequence (P11275 whole entry): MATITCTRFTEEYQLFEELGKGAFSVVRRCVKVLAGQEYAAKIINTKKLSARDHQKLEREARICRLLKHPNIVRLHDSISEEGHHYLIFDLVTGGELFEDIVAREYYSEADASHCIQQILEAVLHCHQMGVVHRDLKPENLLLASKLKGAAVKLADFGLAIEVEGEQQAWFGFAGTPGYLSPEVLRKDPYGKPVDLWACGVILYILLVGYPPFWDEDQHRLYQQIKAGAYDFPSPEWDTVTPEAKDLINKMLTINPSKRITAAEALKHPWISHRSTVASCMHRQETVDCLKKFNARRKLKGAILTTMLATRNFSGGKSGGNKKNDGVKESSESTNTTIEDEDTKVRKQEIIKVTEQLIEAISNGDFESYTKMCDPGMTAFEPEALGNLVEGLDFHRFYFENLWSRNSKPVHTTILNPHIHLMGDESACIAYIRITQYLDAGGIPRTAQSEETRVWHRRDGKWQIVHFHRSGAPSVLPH
T2 sequence (Q9UQM7 whole entry, the tested form may be a part): as the sequence (P11275 whole entry) above, with N324S counted along it

Compound	Ki ([1]; read-out: Ki) [nM]	further results
O=C(O)c1csc(-c2cccc3ccccc23)n1	220	–
O=C(O)Cc1csc(-c2cccc3ccccc23)n1	9900	–
O=C(O)c1csc(-c2ccccc2I)n1	–	Ki [2]: 0.16 µM
CCN(CC)CCOC(=O)c1ccc(N)cc1 [PROCAINE]	–	half-life (physchem): 2 min
O=C(O)c1csc(-c2ccccc2O)n1	–	Ki [2]: 8 µM
O=C(O)Cc1csc(-c2c(Cl)cccc2Cl)n1	> 10000	–
Clc1cccc(Cl)c1-c1nc(-c2nnn[nH]2)cs1	190	–
Cc1ccc(-c2nc(CC(=O)O)cs2)cc1	2900	–
O=C(O)c1csc(/C=C/c2ccccc2)n1	3200	–
O=C(O)c1csc(-c2ccc(-c3ccccc3)cc2)n1	5000	–
O=C(O)c1csc(-c2ccc(C(F)(F)F)cc2)n1	–	Ki [2]: 10.3 µM
O=C(O)c1csc(-c2c(Br)cccc2Br)n1	50	Activity [3]: Dose-dependent-effect; ΔTm [4]: 22 °C
O=C(O)c1csc(CCc2ccccc2)n1	2600	–
Cc1cccc(C)c1-c1nc(C(=O)O)cs1	100	Activity [3]: Dose-dependent-effect; ΔTm [4]: 18 °C
O=C(O)c1csc(-c2c(C(F)(F)F)cccc2C(F)(F)F)n1	> 10000	–

Second part, led by results:

Ki ([1]; read-out: Ki) [nM]	Compound	further results
1600	O=C(O)c1csc(-c2ccc(Cl)c(Cl)c2)n1	–
2700	O=C(O)c1csc(-c2cccc(O)c2)n1	–
7200	COc1ccc(-c2nc(C(=O)O)cs2)cc1	–
11500	O=C(O)c1csc(-c2ccccc2)n1	–
900	Cc1ccccc1-c1nc(C(=O)O)cs1	–
2300	Cc1ccc(-c2nc(C(=O)O)cs2)cc1	Ki ([1]; read-out: pKi (converted)): 12600 nM
